Measurements reported in the supplement of paper PMC11061612.

How the values were obtained:
AZD1390 = compound: CC(C)n1c(=O)n(C)c2cnc3cc(F)c(-c4ccc(OCCCN5CCCCC5)nc4)cc3c21 [AZD1390]; settings: max 0.3 µM
Method in brief: (§1)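 Plates with 1536 wells received cancer cell lines in 7.5 μl of DMEM/F12 or RPMI containing 10% FBS. After 24 hours at 37°C and 5% CO2, cells were dosed for 72 hours with final DMSO typically 0.2%, and viability was read by CellTiter-Glo 2.0 luminescence scaled between blank-well and DMSO-well means. The single-agent IC50 was taken from a logistic fit of the dose responses made with a non-linear mixed effects model, that logistic curve having two parameters.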

Palbociclib = compound: CC(=O)c1c(C)c2cnc(Nc3ccc(N4CCNCC4)cn3)nc2n(C2CCCC2)c1=O [Palbociclib]; settings: max 10 µM
Method in brief: as §1

Dasatinib = compound: CC1=C(C(=CC=C1)Cl)NC(=O)C2=CN=C(S2)NC3=CC(=NC(=N3)C)N4CCN(CC4)CCO [Dasatinib]; settings: max 2 µM
Method in brief: as §1

Lapatinib = compound: CS(=O)(=O)CCNCc1ccc(-c2ccc3ncnc(Nc4ccc(OCc5cccc(F)c5)c(Cl)c4)c3c2)o1 [Lapatinib]; settings: max 10 µM
Method in brief: as §1

Prexasertib = compound: COc1cccc(OCCCN)c1-c1cc(Nc2cnc(C#N)cn2)n[nH]1 [Prexasertib]; settings: max 1 µM
Method in brief: as §1

Capivasertib = compound: C1CN(CCC1(C(=O)N[C@@H](CCO)C2=CC=C(C=C2)Cl)N)C3=NC=NC4=C3C=CN4 [Capivasertib]
Method in brief: as §1

AZD0156 = compound: CN(C)CCCOc1ccc(-c2ccc3ncc4c(c3c2)n(C2CCOCC2)c(=O)n4C)cn1 [AZD0156]
Method in brief: as §1

Doxorubicin = compound: COc1cccc2c1C(=O)c1c(O)c3c(c(O)c1C2=O)C[C@@](O)(C(=O)CO)C[C@@H]3O[C@H]1C[C@H](N)[C@H](O)[C@H](C)O1 [Doxorubicin]; settings: max 1 µM
Method in brief: as §1

Savolitinib = compound: C[C@@H](c1ccc2nccn2c1)n1nnc2ncc(-c3cnn(C)c3)nc21 [Savolitinib]; settings: max 1 µM
Method in brief: as §1

SN-38 = compound: CCc1c2c(nc3ccc(O)cc13)-c1cc3c(c(=O)n1C2)COC(=O)[C@]3(O)CC [SN-38]; settings: max 0.3 µM
Method in brief: as §1

Taselisib = compound: Cc1nc(-c2cn3c(n2)-c2ccc(-c4cnn(C(C)(C)C(N)=O)c4)cc2OCC3)n(C(C)C)n1 [Taselisib]; settings: max 10 µM
Method in brief: as §1

AZD4320 = compound: CN(CC[C@H](CSC1=CC=CC=C1)NC2=C(C=C(C=C2)S(=O)(=O)NC(=O)C3=CC=C(C=C3)N4CCC(CC4)[C@H](C5=CC=CC=C5C6=CC=C(C=C6)Cl)O)S(=O)(=O)C(F)(F)F)CCO [AZD4320]; settings: max 1 µM
Method in brief: as §1

Trametinib = compound: CC(=O)Nc1cccc(-n2c(=O)n(C3CC3)c(=O)c3c(Nc4ccc(I)cc4F)n(C)c(=O)c(C)c32)c1 [Trametinib]; settings: max 1 µM
Method in brief: as §1

AZD8186 = compound: C[C@@H](Nc1cc(F)cc(F)c1)c1cc(C(=O)N(C)C)cc2c(=O)cc(N3CCOCC3)oc12 [AZD8186]; settings: max 3 µM
Method in brief: as §1

AZD1775 = compound: C=CCn1c(=O)c2cnc(Nc3ccc(N4CCN(C)CC4)cc3)nc2n1-c1cccc(C(C)(C)O)n1 [AZD1775]
Method in brief: as §1

Gefitinib = compound: COc1cc2ncnc(Nc3ccc(F)c(Cl)c3)c2cc1OCCCN1CCOCC1 [Gefitinib]; settings: max 10 µM
Method in brief: as §1

Olaparib = compound: O=C(c1cc(Cc2n[nH]c(=O)c3ccccc23)ccc1F)N1CCN(C(=O)C2CC2)CC1 [Olaparib]; settings: max 10 µM
Method in brief: as §1

AZD5153 = compound: COc1nnc2ccc(N3CCC(c4ccc(OCCN5CCN(C)C(=O)[C@H]5C)cc4)CC3)nn12 [AZD5153]; settings: max 1 µM
Method in brief: as §1

Crizotinib = compound: C[C@@H](Oc1cc(-c2cnn(C3CCNCC3)c2)cnc1N)c1c(Cl)ccc(F)c1Cl [Crizotinib]; settings: max 10 µM
Method in brief: as §1

AZD6738 = compound: C[C@@H]1COCCN1C2=NC(=NC(=C2)C3(CC3)[S@](=N)(=O)C)C4=C5C=CNC5=NC=C4 [AZD6738]; settings: max 10 µM
Method in brief: as §1

Selumetinib = compound: Cn1cnc2c(F)c(Nc3ccc(Br)cc3Cl)c(C(=O)NOCCO)cc21 [Selumetinib]
Method in brief: as §1

Alisertib = compound: COc1cc(Nc2ncc3c(n2)-c2ccc(Cl)cc2C(c2c(F)cccc2OC)=NC3)ccc1C(=O)O [Alisertib]; settings: max 10 µM
Method in brief: as §1

AZD2811 = compound: CCN(CCO)CCCOc1ccc2c(Nc3cc(CC(=O)Nc4cccc(F)c4)[nH]n3)ncnc2c1 [AZD2811]; settings: max 1 µM
Method in brief: as §1

AZD7648 = compound: Cc1cc2ncnn2cc1Nc1ncc2c(n1)n(C1CCOCC1)c(=O)n2C [AZD7648]; settings: max 10 µM
Method in brief: as §1

AZD5991 = compound: Cc1c2c(nn1C)CSCc1cc(n(C)n1)CSc1cc(c3ccccc3c1)OCCCc1c(C(=O)O)n(C)c3c-2c(Cl)ccc13 [AZD5991]; settings: max 1 µM
Method in brief: as §1

Venetoclax = compound: CC1(C)CCC(CN2CCN(c3ccc(C(=O)NS(=O)(=O)c4ccc(NCC5CCOCC5)c([N+](=O)[O-])c4)c(Oc4cnc5[nH]ccc5c4)c3)CC2)=C(c2ccc(Cl)cc2)C1 [Venetoclax]; settings: max 1 µM
Method in brief: as §1

SG3199 = compound: CC1=CN2[C@@H](C1)C=NC3=CC(=C(C=C3C2=O)OC)OCCCCCOC4=C(C=C5C(=C4)N=C[C@@H]6CC(=CN6C5=O)C)OC [SG3199]; settings: max 0.001 µM
Method in brief: as §1

Cell Line: 647-V (Bladder Carcinoma)
- IC50, cell viability 72 h (AZD1390): > 300 nM
- IC50, cell viability 72 h (Palbociclib): > 10000 nM
- IC50, cell viability 72 h (Dasatinib): > 2000 nM
- IC50, cell viability 72 h (Lapatinib): > 10000 nM
- IC50, cell viability 72 h (Prexasertib): 174 nM
- IC50, cell viability 72 h (Capivasertib; max 10 µM): > 10000 nM
- IC50, cell viability 72 h (AZD0156; max 3 µM): > 3000 nM
- IC50, cell viability 72 h (Doxorubicin): 240 nM
- IC50, cell viability 72 h (Savolitinib): > 1000 nM
- IC50, cell viability 72 h (SN-38): 2.35 nM
- IC50, cell viability 72 h (Taselisib): > 10000 nM
- IC50, cell viability 72 h (AZD4320): > 1000 nM
- IC50, cell viability 72 h (Trametinib): > 1000 nM
- IC50, cell viability 72 h (AZD8186): > 3000 nM
- IC50, cell viability 72 h (AZD1775; max 3 µM): 812 nM
- IC50, cell viability 72 h (Gefitinib): > 10000 nM
- IC50, cell viability 72 h (Olaparib): > 10000 nM
- IC50, cell viability 72 h (AZD5153): > 1000 nM
- IC50, cell viability 72 h (Crizotinib): > 10000 nM
- IC50, cell viability 72 h (AZD6738): > 10000 nM
- IC50, cell viability 72 h (Selumetinib; max 10 µM): > 10000 nM
- IC50, cell viability 72 h (Alisertib): > 10000 nM
- IC50, cell viability 72 h (AZD2811): > 1000 nM
- IC50, cell viability 72 h (AZD7648): > 10000 nM
- IC50, cell viability 72 h (AZD5991): 961 nM
- IC50, cell viability 72 h (Venetoclax): > 1000 nM
- IC50, cell viability 72 h (SG3199): > 1 nM

Cell Line: A172 (Glioblastoma)
- IC50, cell viability 72 h (AZD1390): > 300 nM
- IC50, cell viability 72 h (Palbociclib): > 10000 nM
- IC50, cell viability 72 h (Dasatinib): > 2000 nM
- IC50, cell viability 72 h (Lapatinib): > 10000 nM
- IC50, cell viability 72 h (Prexasertib): 367 nM
- IC50, cell viability 72 h (Capivasertib; max 10 µM): > 10000 nM
- IC50, cell viability 72 h (AZD0156; max 3 µM): > 3000 nM
- IC50, cell viability 72 h (Doxorubicin): 189 nM
- IC50, cell viability 72 h (Savolitinib): > 1000 nM
- IC50, cell viability 72 h (SN-38): 44.1 nM
- IC50, cell viability 72 h (Taselisib): > 10000 nM
- IC50, cell viability 72 h (AZD4320): > 1000 nM
- IC50, cell viability 72 h (Trametinib): > 1000 nM
- IC50, cell viability 72 h (AZD8186): > 3000 nM
- IC50, cell viability 72 h (AZD1775; max 3 µM): > 3000 nM
- IC50, cell viability 72 h (Gefitinib): > 10000 nM
- IC50, cell viability 72 h (Olaparib): > 10000 nM
- IC50, cell viability 72 h (AZD5153): > 1000 nM
- IC50, cell viability 72 h (Crizotinib): > 10000 nM
- IC50, cell viability 72 h (AZD6738): 9490 nM
- IC50, cell viability 72 h (Selumetinib; max 10 µM): > 10000 nM
- IC50, cell viability 72 h (Alisertib): 1420 nM
- IC50, cell viability 72 h (AZD2811): 708 nM
- IC50, cell viability 72 h (AZD7648): > 10000 nM
- IC50, cell viability 72 h (AZD5991): > 1000 nM
- IC50, cell viability 72 h (Venetoclax): > 1000 nM
- IC50, cell viability 72 h (SG3199): > 1 nM

Cell Line: EFM-192A (Breast Carcinoma)
- IC50, cell viability 72 h (AZD1390): > 300 nM
- IC50, cell viability 72 h (Palbociclib): > 10000 nM
- IC50, cell viability 72 h (Dasatinib): > 2000 nM
- IC50, cell viability 72 h (Lapatinib): 1360 nM
- IC50, cell viability 72 h (Prexasertib): > 1000 nM
- IC50, cell viability 72 h (Capivasertib; max 10 µM): > 10000 nM
- IC50, cell viability 72 h (AZD0156; max 3 µM): > 3000 nM
- IC50, cell viability 72 h (Doxorubicin): > 1000 nM
- IC50, cell viability 72 h (Savolitinib): > 1000 nM
- IC50, cell viability 72 h (SN-38): > 300 nM
- IC50, cell viability 72 h (Taselisib): 475 nM
- IC50, cell viability 72 h (AZD4320): > 1000 nM
- IC50, cell viability 72 h (Trametinib): > 1000 nM
- IC50, cell viability 72 h (AZD8186): > 3000 nM
- IC50, cell viability 72 h (AZD1775; max 3 µM): > 3000 nM
- IC50, cell viability 72 h (Gefitinib): > 10000 nM
- IC50, cell viability 72 h (Olaparib): > 10000 nM
- IC50, cell viability 72 h (AZD5153): > 1000 nM
- IC50, cell viability 72 h (Crizotinib): > 10000 nM
- IC50, cell viability 72 h (AZD6738): > 10000 nM
- IC50, cell viability 72 h (Selumetinib; max 10 µM): > 10000 nM
- IC50, cell viability 72 h (Alisertib): > 10000 nM
- IC50, cell viability 72 h (AZD2811): > 1000 nM
- IC50, cell viability 72 h (AZD7648): > 10000 nM
- IC50, cell viability 72 h (AZD5991): 706 nM
- IC50, cell viability 72 h (Venetoclax): > 1000 nM
- IC50, cell viability 72 h (SG3199): > 1 nM

Cell Line: EKVX (Non-Small Cell Lung Carcinoma)
- IC50, cell viability 72 h (Prexasertib): > 1000 nM
- IC50, cell viability 72 h (Capivasertib; max 3 µM): > 3000 nM
- IC50, cell viability 72 h (AZD0156; max 1 µM): > 1000 nM
- IC50, cell viability 72 h (Doxorubicin): > 1000 nM
- IC50, cell viability 72 h (SN-38): > 300 nM
- IC50, cell viability 72 h (Taselisib): > 10000 nM
- IC50, cell viability 72 h (AZD4320): > 1000 nM
- IC50, cell viability 72 h (Trametinib): 747 nM
- IC50, cell viability 72 h (AZD8186): > 3000 nM
- IC50, cell viability 72 h (AZD1775; max 1 µM): > 1000 nM
- IC50, cell viability 72 h (Olaparib): > 10000 nM
- IC50, cell viability 72 h (AZD6738): > 10000 nM
- IC50, cell viability 72 h (Selumetinib; max 3 µM): > 3000 nM
- IC50, cell viability 72 h (Alisertib): > 10000 nM
- IC50, cell viability 72 h (AZD2811): > 1000 nM
- IC50, cell viability 72 h (AZD7648): > 10000 nM
- IC50, cell viability 72 h (AZD5991): > 1000 nM
- IC50, cell viability 72 h (Venetoclax): > 1000 nM
- IC50, cell viability 72 h (SG3199): > 1 nM
